Reference: patent US20090227647A1, “Compounds, Compositions and Methods for the Treatment of Islet Amyloid Polypeptide (IAPP) Accumulation in Diabetes” (priority 2008, published 2009)
Values belong to the molecule of their own block, whether it stands above or below them.

Tests used:
[1] = biological target: T1, pre-fibrillized Amylin/IAPP fibrils (Homo sapiens, UniProt P10997); assay: Thioflavin T fluorometry, disruption/disassembly of pre-formed Amylin/IAPP fibrils; format: biochemical; conditions: for % Inhibition Amylin/IAPP (result ± S.D.), Thioflavin T fluorometry: 3-day incubation at 37° C.; for disruption/disassembly of preformed Amylin/IAPP fibrils (result in words), Thioflavin T fluorometry: all concentrations tested (wt/wt ratios 1:1 to 1:0.001)
T1 construct: purchased Bachem Inc
T1 sequence (P10997 34-70 limits assumed): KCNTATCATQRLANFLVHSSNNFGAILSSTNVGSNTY
Experimental: The biological activity of the compounds provided herein as disruptors/inhibitors of IAPP amyloid protein fibrils, was assessed by determining the efficacy of the compounds to cause a disassembly/disruption of pre-formed IAPP amyloid fibrils. […] In this assay Thioflavin T binds specifically to fibrillar amyloid, and this binding produces a fluorescence enhancement at 485 nm that is directly proportional to the amount of fibrils present. The higher the fluorescence, the greater the amount of fibrils present (Naki et al, Lab. Invest. 65:104-110, 1991; Levine III, Protein Sci. 2:404-410, 1993; Amyloid: Int. J. Exp. Clin. Invest. 2:1-6, 1995).
In this assay Thioflavin T binds specifically to fibrillar amyloid, and this binding produces a fluorescence enhancement at 485 nm that is directly proportional to the amount of amyloid fibrils formed. The higher the fluorescence, the greater the amount of amyloid fibrils formed (Naki et al., Lab. Invest. 65:104-110, 1991; Levine III, Protein Sci. 2:404-410, 1993; Amyloid: Int. J. Exp. Clin. Invest. 2:1-6, 1995). The same premise is applied to Amylin/IAPP fibrils.
Following 3-days of co-incubation, 50 μl of each incubation mixture was transferred into a 96-well microtiter plate containing 150 μl of distilled water and 50 μl of a Thioflavin T solution (i.e. 500 mM Thioflavin T in 250 mM phosphate buffer, pH 6.8). The fluorescence was read at 485 nm (444 nm excitation wavelength) using an ELISA plate fluorometer after subtraction with buffer alone or compound alone, as blank.

[2] = biological target: T2, Amylin/IAPP fibrils (Homo sapiens, UniProt P10997); assay: Congo red binding assay, Amylin/IAPP fibrils; format: biochemical; conditions: 3-day incubation
T2 sequence (P10997 34-70 limits assumed): T1 sequence (P10997 34-70 limits assumed)
Experimental: In the Congo red binding assay the ability of a given test compound to alter amyloid binding to Congo red was quantified. In this assay, IAPP fibrils and test compounds were incubated for 3 days and then vacuum filtered through a 0.2 μm filter. The amount of IAPP fibrils retained in the filter was then quantitated following staining of the filter with Congo red. After appropriate washing of the filter, any lowering of the Congo red color on the filter in the presence of the test compound (compared to the Congo red staining of the amyloid protein in the absence of the test compound) was indicative of the test compound's ability to diminish/alter the amount of aggregated and congophilic IAPP fibrils.
In the Congo red binding assay the ability of a test compound to alter Amylin/IAPP binding to Congo red is quantified. In this assay, Amylin/IAPP and test compounds were incubated for 3 days and then vacuum filtered through a 0.2 μm filter. The amount of Amylin/IAPP retained in the filter was then quantitated following staining of the filter with Congo red. After appropriate washing of the filter, any lowering of the Congo red color retained on the filter in the presence of the test compound (compared to the Congo red staining of the Amylin/IAPP protein in the absence of the test compound) was indicative of the test compound's ability to diminish/alter the amount of aggregated and/or congophilic Amylin/IAPP.

[3] = Amylin/IAPP:test compound wt/wt ratio 1:0.001
[4] = Amylin/IAPP:test compound wt/wt ratio 1:0.01
[5] = Amylin/IAPP:test compound wt/wt ratio 1:0.1
[6] = Amylin/IAPP:test compound wt/wt ratio 1:1

SMILES: Oc1ccc(C23CC4CC(C2)CC(c2ccc(O)c(O)c2)(C4)C3)cc1O [Compound 9, 1,3 bis(3,4 dihydroxyphenyl) Adamantane]
% Inhibition Amylin/IAPP (result ± S.D.), Thioflavin T fluorometry [1, 3]: 4.3 ± 2.29% | % Inhibition Amylin/IAPP (result ± S.D.), Thioflavin T fluorometry [1, 4]: 36.6 ± 3.55% | % Inhibition Amylin/IAPP (result ± S.D.), Thioflavin T fluorometry [1, 5]: 88.5 ± 0.31% | % Inhibition Amylin/IAPP (result ± S.D.), Thioflavin T fluorometry [1, 6]: 97.6 ± 0.31% | % Inhibition Amylin/IAPP (result ± S.D.), Congo red binding [2, 3]: 16.5 ± 9.88% | % Inhibition Amylin/IAPP (result ± S.D.), Congo red binding [2, 4]: 12.0 ± 8.03% | % Inhibition Amylin/IAPP (result ± S.D.), Congo red binding [2, 5]: 41.2 ± 5.64% | % Inhibition Amylin/IAPP (result ± S.D.), Congo red binding [2, 6]: 88.6 ± 2.08%

SMILES: Oc1ccc(-c2cc(-c3ccc(O)c(O)c3)[nH]n2)cc1O [Compound 8, 3,5 bis(3,4 Dihydroxyphenyl)Pyrazole]
% Inhibition Amylin/IAPP (result ± S.D.), Thioflavin T fluorometry [1, 3]: 8.1 ± 1.54% | % Inhibition Amylin/IAPP (result ± S.D.), Thioflavin T fluorometry [1, 4]: 48.4 ± 0.31% | % Inhibition Amylin/IAPP (result ± S.D.), Thioflavin T fluorometry [1, 5]: 91.2 ± 0.76% | % Inhibition Amylin/IAPP (result ± S.D.), Thioflavin T fluorometry [1, 6]: 99.0 ± 1.05% | % Inhibition Amylin/IAPP (result ± S.D.), Congo red binding [2, 3]: 1.7 ± 1.98% | % Inhibition Amylin/IAPP (result ± S.D.), Congo red binding [2, 4]: 20.2 ± 7.11% | % Inhibition Amylin/IAPP (result ± S.D.), Congo red binding [2, 5]: 39.7 ± 7.20% | % Inhibition Amylin/IAPP (result ± S.D.), Congo red binding [2, 6]: 74.9 ± 1.26%

SMILES: Oc1ccc(-c2nnc(-c3ccc(O)c(O)c3)[nH]2)cc1O [Compound 7, 3,5 bis(3,4 Dihydroxyphenyl) 1,2,4 Triazole]
% Inhibition Amylin/IAPP (result ± S.D.), Thioflavin T fluorometry [1, 3]: 4.6 ± 4.34% | % Inhibition Amylin/IAPP (result ± S.D.), Thioflavin T fluorometry [1, 4]: 41.4 ± 2.13% | % Inhibition Amylin/IAPP (result ± S.D.), Thioflavin T fluorometry [1, 5]: 89.7 ± 0.54% | % Inhibition Amylin/IAPP (result ± S.D.), Thioflavin T fluorometry [1, 6]: 99.8 ± 0.31% | % Inhibition Amylin/IAPP (result ± S.D.), Congo red binding [2, 3]: 9.1 ± 1.29% | % Inhibition Amylin/IAPP (result ± S.D.), Congo red binding [2, 5]: 44.1 ± 5.62% | % Inhibition Amylin/IAPP (result ± S.D.), Congo red binding [2, 6]: 66.2±7.81%

SMILES: O=S(=O)(Nc1ccc(O)c(O)c1)c1ccc(O)c(O)c1 [Compound 5, 3,4 Dihydroxybenzenesulfonic acid 3,4 Dihydroxysulfonamide]
% Inhibition Amylin/IAPP (result ± S.D.), Thioflavin T fluorometry [1, 3]: 14.1 ± 1.62% | % Inhibition Amylin/IAPP (result ± S.D.), Thioflavin T fluorometry [1, 4]: 56.7±0.4% | % Inhibition Amylin/IAPP (result ± S.D.), Thioflavin T fluorometry [1, 5]: 93.7±1.13% | % Inhibition Amylin/IAPP (result ± S.D.), Thioflavin T fluorometry [1, 6]: 99.7 ± 0.38% | disruption/disassembly of preformed Amylin/IAPP fibrils (result in words), Thioflavin T fluorometry [1]: most efficacious | % Inhibition Amylin/IAPP (result ± S.D.), Congo red binding [2, 3]: 3.5 ± 2.40% | % Inhibition Amylin/IAPP (result ± S.D.), Congo red binding [2, 4]: 8.3 ± 6.91% | % Inhibition Amylin/IAPP (result ± S.D.), Congo red binding [2, 5]: 43.4 ± 3.39% | % Inhibition Amylin/IAPP (result ± S.D.), Congo red binding [2, 6]: 54.6 ± 14.22%

SMILES: CN(C(=O)c1ccc(O)c(O)c1)c1ccc(O)c(O)c1 [Compound 4, 3,4 Dihydroxybenzoic Acid 3,4 Dihydroxy N-methyl Anilide]
% Inhibition Amylin/IAPP (result ± S.D.), Thioflavin T fluorometry [1, 3]: 9.8 ± 7.47% | % Inhibition Amylin/IAPP (result ± S.D.), Thioflavin T fluorometry [1, 4]: 57.4±1.61% | % Inhibition Amylin/IAPP (result ± S.D.), Thioflavin T fluorometry [1, 5]: 95.4±0.23% | % Inhibition Amylin/IAPP (result ± S.D.), Thioflavin T fluorometry [1, 6]: 100.0 ± 0.09% | disruption/disassembly of preformed Amylin/IAPP fibrils (result in words), Thioflavin T fluorometry [1]: most efficacious | % Inhibition Amylin/IAPP (result ± S.D.), Congo red binding [2, 3]: 0.0 ± 7.35% | % Inhibition Amylin/IAPP (result ± S.D.), Congo red binding [2, 4]: 8.0 ± 4.62% | % Inhibition Amylin/IAPP (result ± S.D.), Congo red binding [2, 5]: 46.0±7.43% | % Inhibition Amylin/IAPP (result ± S.D.), Congo red binding [2, 6]: 70.8±1.55%

SMILES: Oc1ccc(-c2cnc(-c3ccc(O)c(O)c3)[nH]2)cc1O [Compound 6, 2,4 bis(3,4 dihydroxyphenyl) Imidazole]
% Inhibition Amylin/IAPP (result ± S.D.), Thioflavin T fluorometry [1, 3]: 17.2 ± 4.22% | % Inhibition Amylin/IAPP (result ± S.D.), Thioflavin T fluorometry [1, 4]: 68.9±3.33% | % Inhibition Amylin/IAPP (result ± S.D.), Thioflavin T fluorometry [1, 5]: 96.3±0.76% | % Inhibition Amylin/IAPP (result ± S.D.), Thioflavin T fluorometry [1, 6]: 100.0 ± 0.26% | disruption/disassembly of preformed Amylin/IAPP fibrils (result in words), Thioflavin T fluorometry [1]: most efficacious | % Inhibition Amylin/IAPP (result ± S.D.), Congo red binding [2, 3]: 5.2 ± 2.31% | % Inhibition Amylin/IAPP (result ± S.D.), Congo red binding [2, 4]: 1.0 ± 4.82% | % Inhibition Amylin/IAPP (result ± S.D.), Congo red binding [2, 5]: 36.4 ± 12.77% | % Inhibition Amylin/IAPP (result ± S.D.), Congo red binding [2, 6]: 80.7 ± 0.75%

Further lines, results first:

% Inhibition Amylin/IAPP (result ± S.D.), Thioflavin T fluorometry [1, 3]: 14.3 ± 3.56% | % Inhibition Amylin/IAPP (result ± S.D.), Thioflavin T fluorometry [1, 4]: 60.9±0.61% | % Inhibition Amylin/IAPP (result ± S.D.), Thioflavin T fluorometry [1, 5]: 95.1±0.48% | % Inhibition Amylin/IAPP (result ± S.D.), Thioflavin T fluorometry [1, 6]: 98.5 ± 0.26% | disruption/disassembly of preformed Amylin/IAPP fibrils (result in words), Thioflavin T fluorometry [1]: most efficacious | % Inhibition Amylin/IAPP (result ± S.D.), Congo red binding [2, 3]: 0.0 ± 6.44% | % Inhibition Amylin/IAPP (result ± S.D.), Congo red binding [2, 4]: 7.8 ± 6.13% | % Inhibition Amylin/IAPP (result ± S.D.), Congo red binding [2, 5]: 35.7 ± 5.12% | % Inhibition Amylin/IAPP (result ± S.D.), Congo red binding [2, 6]: 58.1 ± 6.67%
SMILES: O=C(Nc1ccc(O)c(O)c1)c1cccc(O)c1O [Compound 1, 2,3 dihydroxybenzoic Acid 3,4 Dihydroxyanilide]

% Inhibition Amylin/IAPP (result ± S.D.), Thioflavin T fluorometry [1, 3]: 5.1 ± 4.57% | % Inhibition Amylin/IAPP (result ± S.D.), Thioflavin T fluorometry [1, 4]: 52.9 ± 4.36% | % Inhibition Amylin/IAPP (result ± S.D.), Thioflavin T fluorometry [1, 5]: 92.6 ± 0.84% | % Inhibition Amylin/IAPP (result ± S.D.), Thioflavin T fluorometry [1, 6]: 99.4 ± 1.69% | % Inhibition Amylin/IAPP (result ± S.D.), Congo red binding [2, 3]: 5.3 ± 6.75% | % Inhibition Amylin/IAPP (result ± S.D.), Congo red binding [2, 4]: 5.2 ± 0.23% | % Inhibition Amylin/IAPP (result ± S.D.), Congo red binding [2, 5]: 33.5 ± 6.38% | % Inhibition Amylin/IAPP (result ± S.D.), Congo red binding [2, 6]: 45.8 ± 1.62%
SMILES: O=C(Nc1cccc(O)c1O)c1ccc(O)c(O)c1 [Compound 2, 3,4 dihydroxybenzoic Acid 2,3 Dihydroxyanilide]

% Inhibition Amylin/IAPP (result ± S.D.), Thioflavin T fluorometry [1, 3]: 5.0 ± 6.78% | % Inhibition Amylin/IAPP (result ± S.D.), Thioflavin T fluorometry [1, 4]: 51.7±3.56% | % Inhibition Amylin/IAPP (result ± S.D.), Thioflavin T fluorometry [1, 5]: 94.5±0.91% | % Inhibition Amylin/IAPP (result ± S.D.), Thioflavin T fluorometry [1, 6]: 99.3 ± 0.6% | disruption/disassembly of preformed Amylin/IAPP fibrils (result in words), Thioflavin T fluorometry [1]: most efficacious | % Inhibition Amylin/IAPP (result ± S.D.), Congo red binding [2, 3]: 7.1 ± 4.14% | % Inhibition Amylin/IAPP (result ± S.D.), Congo red binding [2, 4]: 3.6 ± 1.16% | % Inhibition Amylin/IAPP (result ± S.D.), Congo red binding [2, 5]: 26.0 ± 5.79% | % Inhibition Amylin/IAPP (result ± S.D.), Congo red binding [2, 6]: 60.1 ± 3.78%
SMILES: O=C(Nc1cccc(O)c1O)c1cccc(O)c1O [Compound 3, 2,3 dihydroxybenzoic Acid 2,3 Dihydroxyanilide]
